The values below come from patent US9187448B2, “Flavonoid compounds” (CARDERO THERAPEUTICS, INC., priority 2011, dated 2015).

Data set [1] deals with mitochondrial complex proteins (MCP) I and V. As to the kind of experiment: Western blot of mitochondrial complex proteins (MCP) in coronary artery endothelial cells. The note with it: HCAEC or BCAEC, Western blot band intensity; results shown in FIG. 2. It counts as cell-based, human (HCAEC) or bovine (BCAEC). The protocol: The effect of (−)-epicatechin analogs on mitochondrial complex proteins (MCP) I and V was studied human (HCAEC) or bovine (BCAEC) Coronary Artery Endothelial cells. Western blots were performed as follows: Approximately 50 mg of cells were homogenized with a polytron in 500 μl lysis buffer (1% triton X-100, 20 mM Tris, 140 mM NaCl, 2 mM EDTA, and 0.1% SDS) with protease and phosphatase inhibitor cocktails (P2714 and P2850, Sigma-Aldrich, St. Louis, Mo.) supplemented with 0.15 mM PMSF, 5 mM Na3VO4 and 3 mM NaF. Homogenates were passed through an insulin syringe five times, sonicated for 30 min at 4° C. and centrifuged (12,000 g) for 10 min. The total protein content was measured in the supernatant using the Bradford method. A total of 40 μg of protein was loaded onto a 4%-15% precast TGX polyacrylamide gel (Bio-rad), electrotransferred (12 V, 50 minutes), incubated for 1 h in blocking solution (5% nonfat dry milk in TBS plus 0.1% Tween 20 [TBS-T]). Blots were probed with a cocktail of monoclonal antibodies to electron transport chain proteins (OXPHOS) (20 KDa subunit of complex I, 26 KDa subunit of complex IV, subunit core 2 of complex III, 30 Kda complex II and ATP synthase 54 Kda complex V). […] The band intensities were digitally quantified using ImageJ software (http://www.nih.gov).

The conditions of data set [2]: rat; cited from earlier work.
For data set [3] the following is noted: humans, ingested in chocolate; cited from earlier work.
For another data set, the target named is T1, MRP2 efflux transporter (Homo sapiens, UniProt Q92887).
T1 construct: In a study of enterocyte absorption using human intestinal Caco-2 cells; endogenous in cells; host or cells: Caco-2
The conditions noted are these: human intestinal Caco-2 cells; cited from earlier work.

T1 sequence (Q92887 whole entry): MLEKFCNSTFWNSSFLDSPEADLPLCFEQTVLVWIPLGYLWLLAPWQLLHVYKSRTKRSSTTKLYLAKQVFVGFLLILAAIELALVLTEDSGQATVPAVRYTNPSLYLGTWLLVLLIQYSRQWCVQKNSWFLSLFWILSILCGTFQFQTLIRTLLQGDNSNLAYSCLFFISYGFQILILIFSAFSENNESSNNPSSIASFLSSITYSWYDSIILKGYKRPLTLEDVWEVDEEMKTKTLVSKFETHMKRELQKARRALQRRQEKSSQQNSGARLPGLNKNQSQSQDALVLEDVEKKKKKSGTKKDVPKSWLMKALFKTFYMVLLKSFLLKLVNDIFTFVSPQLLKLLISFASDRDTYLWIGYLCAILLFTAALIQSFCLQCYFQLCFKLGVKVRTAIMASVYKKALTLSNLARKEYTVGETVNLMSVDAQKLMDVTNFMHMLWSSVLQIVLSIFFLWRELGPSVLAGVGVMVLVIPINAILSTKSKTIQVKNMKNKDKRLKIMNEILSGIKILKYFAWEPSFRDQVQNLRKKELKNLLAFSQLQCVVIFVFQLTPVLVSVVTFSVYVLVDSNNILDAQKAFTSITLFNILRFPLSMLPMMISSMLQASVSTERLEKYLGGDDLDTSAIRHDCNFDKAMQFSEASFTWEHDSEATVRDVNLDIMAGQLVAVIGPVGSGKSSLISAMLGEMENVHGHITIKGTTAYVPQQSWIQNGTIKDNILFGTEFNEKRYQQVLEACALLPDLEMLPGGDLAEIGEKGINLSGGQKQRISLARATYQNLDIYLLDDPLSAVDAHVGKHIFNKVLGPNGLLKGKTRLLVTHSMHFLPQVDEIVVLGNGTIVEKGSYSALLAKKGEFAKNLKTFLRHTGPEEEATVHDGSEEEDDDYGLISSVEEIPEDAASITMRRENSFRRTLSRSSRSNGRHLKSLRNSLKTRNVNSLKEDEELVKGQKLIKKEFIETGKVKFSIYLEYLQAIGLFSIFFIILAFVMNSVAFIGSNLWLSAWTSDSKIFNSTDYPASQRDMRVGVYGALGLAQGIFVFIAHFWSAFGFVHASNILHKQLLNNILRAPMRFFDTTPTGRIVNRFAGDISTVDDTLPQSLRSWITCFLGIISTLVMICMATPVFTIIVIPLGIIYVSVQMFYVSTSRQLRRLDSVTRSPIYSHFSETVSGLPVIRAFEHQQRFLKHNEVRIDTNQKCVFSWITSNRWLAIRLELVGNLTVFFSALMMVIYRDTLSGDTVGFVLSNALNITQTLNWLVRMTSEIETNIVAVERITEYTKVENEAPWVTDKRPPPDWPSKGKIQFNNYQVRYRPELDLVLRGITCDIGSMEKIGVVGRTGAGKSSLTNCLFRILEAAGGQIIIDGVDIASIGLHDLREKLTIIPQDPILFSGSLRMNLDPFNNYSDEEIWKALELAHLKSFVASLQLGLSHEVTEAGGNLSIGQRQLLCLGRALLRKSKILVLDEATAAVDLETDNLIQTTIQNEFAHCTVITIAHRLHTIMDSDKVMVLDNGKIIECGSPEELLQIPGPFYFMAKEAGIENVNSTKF

`COc1cc(OC)c2c(c1)O[C@H](c1ccc(O)c(O)c1)[C@H](O)C2` [5,7-dimethyl substituted (−)-epicatechin]: the “effect on MCP (activity/potency) relative to (−)-epicatechin” value in data set [1] was “less potent than the unsubstituted parent”.

As to `Oc1cc(O)c2c(c1)O[C@H](c1ccc(O)c(O)c1)[C@@H](O)C2` [(+)-catechin], the “effect on absorption of (−)-epicatechin” value in data set [2] was “inhibited”.

In the case of `Oc1cc(O)c2c(c1)O[C@H](c1ccc(O)c(O)c1)[C@H](O)C2` [(−)-epicatechin, (2R,3R)-2-(3,4-dihydroxyphenyl)chroman-3,5,7-triol], in data set [3], the fraction absorbed entry is given as “approximately 30%”. Further, the “efflux transporter substrate status” value at MRP2 efflux transporter is “substrate of the MRP2 efflux transporter”.

As for `CN(C)C(=O)CCSC(SCCC(=O)O)c1cccc(/C=C/c2ccc3ccc(Cl)cc3n2)c1` (centres unmarked) [MK-571], the “effect of MRP2 inhibition on absorption of (−)-epicatechin” value at MRP2 efflux transporter is on record as “increased absorption of (−)-epicatechin somewhat”.
